Results: patent EP0276057B1, “Piperazinylpyrimidines as beta-adrenergic receptor blocking agents” (Merck & Co., Inc., priority 1987, dated 1988)

Columns and labels:
ß1 = ß1 (Homo sapiens, UniProt P08588); experiment: Block of ligand binding to β-adrenergic receptor, ß1; details: for inhibition at 10 µM: at 10,000 nM, 50% blockade not achieved at reasonable concentrations, read-out: % blocked at nM concentration shown ß1; for IC50: read-out: Concentration (nM) To Block Binding of Ligand by 50% ß1
Chain of ß1 (P08588 whole entry): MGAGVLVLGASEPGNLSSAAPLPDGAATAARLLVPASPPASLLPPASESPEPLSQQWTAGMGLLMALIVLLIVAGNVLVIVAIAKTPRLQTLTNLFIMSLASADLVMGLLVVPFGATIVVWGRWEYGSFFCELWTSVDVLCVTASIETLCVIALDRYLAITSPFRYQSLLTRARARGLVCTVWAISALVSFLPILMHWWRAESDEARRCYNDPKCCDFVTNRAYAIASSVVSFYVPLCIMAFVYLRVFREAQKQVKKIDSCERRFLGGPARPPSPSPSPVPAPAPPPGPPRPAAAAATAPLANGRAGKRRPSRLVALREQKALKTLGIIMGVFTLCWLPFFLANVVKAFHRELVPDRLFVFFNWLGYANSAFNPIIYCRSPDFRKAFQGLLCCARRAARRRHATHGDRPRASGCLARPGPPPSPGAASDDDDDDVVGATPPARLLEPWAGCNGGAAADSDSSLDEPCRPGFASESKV

ß2 = ß2 (Homo sapiens, UniProt P07550); experiment: Block of ligand binding to β-adrenergic receptor, ß2; details: for IC50: read-out: Concentration (nM) To Block Binding of Ligand by 50% ß2; for inhibition at 10 µM: at 10,000 nM, 50% blockade not achieved at reasonable concentrations, read-out: % blocked at nM concentration shown ß2
Chain of ß2 (P07550 whole entry): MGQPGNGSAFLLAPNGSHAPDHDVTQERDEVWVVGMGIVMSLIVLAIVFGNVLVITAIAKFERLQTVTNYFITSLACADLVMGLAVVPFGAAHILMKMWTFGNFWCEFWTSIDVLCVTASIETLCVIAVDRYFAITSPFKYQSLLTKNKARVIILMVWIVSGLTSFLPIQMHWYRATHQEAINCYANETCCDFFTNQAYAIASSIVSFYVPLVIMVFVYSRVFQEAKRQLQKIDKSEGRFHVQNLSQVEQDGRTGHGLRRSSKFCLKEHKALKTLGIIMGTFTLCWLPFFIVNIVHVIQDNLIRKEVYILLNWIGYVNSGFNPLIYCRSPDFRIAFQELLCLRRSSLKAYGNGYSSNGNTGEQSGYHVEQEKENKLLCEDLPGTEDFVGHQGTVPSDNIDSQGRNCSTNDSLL

| inhibition at 10 µM (ß1) [%] | IC50 (ß2) [nM] | IC50 (ß1) [nM] | inhibition at 10 µM (ß2) [%] | SMILES |
| --- | --- | --- | --- | --- |
| 3 | 27000 |  |  | CCN1CCN(c2nc(C)nc3c2SCCC3)CC1 |
|  | 314 | 680 |  | Cc1nc2c(c(N3CCNCC3)n1)SCCC2 [R^1 = -CH3, R^2 = H (the 1st table r1 drawing)] |
| 0 |  |  | 0 | Cc1nc2c(c(N3CCN(Cc4ccccc4)CC3)n1)SCCC2 |
|  | 4800 | 4300 |  | CCCCc1nc2c(c(N3CCN(C)CC3)n1)SCCC2 |
|  | 340 | 820 |  | Cc1nc2c(c(N3CCNCC3)n1)CSC2 [R^1 = -CH3, R^2 = H (the 1st table r11 drawing)] |
| 6 |  |  | 8 | Cc1nc2c(c(N3CCN(C4CC4)CC3)n1)SCCC2 |
| 15 |  |  | 24 | Cc1nc2c(c(N3CCN(C)CC3)n1)CSC2 |

| SMILES | inhibition at 10 µM (ß1) [%] | IC50 (ß2) [nM] | IC50 (ß1) [nM] | inhibition at 10 µM (ß2) [%] |
| --- | --- | --- | --- | --- |
| CCc1nc(N2CCNCC2)c2sccc2n1 [R^1 = -C2H5, R^2 = H (the 2nd table r0 drawing)] |  | 140 | 300 |  |
| CCc1nc(N2CCN(C)CC2)c2sccc2n1 |  | 1040 | 2400 |  |
